Measured values as given in patent publication US20210030703A1, “USE OF CALORIC RESTRICTION MIMETICS FOR POTENTIATING CHEMO-IMMUNOTHERAPY FOR THE TREATMENT OF CANCERS” (INSERM (INSTITUT NATIONAL DE LA SANTÉ ET DE LA RECHERCHE …, priority 2018, published 2021).

Assays:
[1] = background, reference (9); cited from earlier work
MCA205 fibrosarcoma [2] = assay: Subcutaneous MCA205 fibrosarcoma: tumor growth, cure and survival under chemo-immunotherapy; assay type: in vivo, C57B1/6 mice
MCA205 fibrosarcoma [3] = assay: as above; assay type: in vivo, C57B1/6 mice; details: for Efficacy of MTX + ICIs (anti-PD-1 plus anti-CTLA-4) chemo-immunotherapy when the CRM is added: figure legends FIG. 2, 3, 4, 6
Protocol: Mouse strain and housing. Six- to 8-week-old wild-type female C57B1/6 mice were obtained from Envigo RMS SARL (Gannat, France). Animals were maintained in specific pathogen-free conditions in a temperature-controlled environment with 12 h light, 12 h dark cycles and received food and water ad libitum (unless precised otherwise). Animal experiments were in compliance with the EU Directive 63/2010 and approved by the Ethical Committee of the Cordeliers Research Center (Paris, France). All mouse experiments were randomized and blinded, and sample sizes were calculated to detect a statistically significant effect.
In vivo experimentations. Tumor engraftment was performed through subcutaneous injection of 3×10^5 MCA205 fibrosarcoma tumor cells (in 100 μl PBS) in the right flank of the mice. Tumor volume was monitored using a digital caliper and calculated according to the formula: volume=length×width×height/8×4/3 pi. When tumor reached 20 mm^3 on average, mice underwent fasting (48 hours without food but ad libitum access to water) or were given caloric restriction mimetics (CRMs) such as aspirin (Asp; 10 mg/kg i.p. in 200 μl phosphate buffered saline [PBS] five times per week), hydroxycitrate (HC; 5 mg/ml in drinking water daily) or spermidine (Spd; 50 mg/kg i.p. in 200 μl Earle's balanced salt solution three times per week), or were treated with mitoxantrone (MTX; 5.17 mg/kg i.p. in 200 μl PBS), or with the immune checkpoint inhibitors (ICIs) anti-PD-1 (10 mg/kg i.p. in 200 μl PBS) and/or anti-CTLA-4 (5 mg/kg i.p. in 200 μl PBS). Tumor size was carefully monitored up to 50 days post-MTX. Antitumor immunity induced by the treatment in cured mice was challenged by subcutaneously re-engrafting the same tumor (3×10^5 syngeneic MCA205 fibrosarcoma cells) in one flank while an antigenically unrelated cancer (3×10^5 syngeneic TC1 lung carcinoma cells) was implanted into the contralateral flank.
Statistical analyses. For tumor size comparison, Student unpaired t test or one-way ANOVA (Holm-Sidak) were performed. All statistical analyses were performed using GraphPad Prism version 6 for Windows (GraphPad Software, La Jolla, Calif., USA). Differences were considered significant when p value<0.05.

[4] = tested on: MCA205 fibrosarcoma cells; assay: Rechallenge of cured mice with the same tumor (MCA205); assay type: in vivo, C57B1/6 mice; details: mice cured from MCA205 following MTX+ICIs+Spd treatment (FIG. 4G)
Protocol: (§1) In vivo experimentations. Tumor engraftment was performed through subcutaneous injection of 3×10^5 MCA205 fibrosarcoma tumor cells (in 100 μl PBS) in the right flank of the mice. […] Tumor size was carefully monitored up to 50 days post-MTX. Antitumor immunity induced by the treatment in cured mice was challenged by subcutaneously re-engrafting the same tumor (3×10^5 syngeneic MCA205 fibrosarcoma cells) in one flank while an antigenically unrelated cancer (3×10^5 syngeneic TC1 lung carcinoma cells) was implanted into the contralateral flank.

whole MCA205 tumors = assay: RNA-seq analyses of whole tumors; assay type: in vivo, C57B1/6 mice; details: day 3 post-chemotherapy (MTX); data not shown
[5] = tested on: immune infiltrate of MCA205 tumors; assay: Immunophenotyping of the tumor immune infiltrate by flow cytometry; assay type: in vivo, C57B1/6 mice; details: data not shown
Protocol: 3 or 11 days post-chemotherapy (d3 or d11), mice were euthanized and the tumors were withdrawn and placed in gentleMACS C tubes (ref 130-096-334 from Miltenyi BiotecTM) previously filled with 1 ml of DMEM or RPMI medium, and immediately put on ice. […] Then, cells were stained with a live dead dye (ref L34959 from ThermoFisher ScientificTM) and an FCblock receptor targeting antibody. For the surface stainings, several anti-mouse fluorochrome-coupled antibodies were employed, that were for 1) myeloid cells “staining 1”: anti-CD45 APC-Fire750 (clone 30E-11, ref 130154 BiolegendTM), anti-Ly-6G PE (clone 1A8, ref 551461 BDTM), anti-Ly-6C FITC (clone AL-21, ref 553104, BDTM), anti-CD11b V450 (clone M1/70, ref 560455 BDTM), anti-CD11c PE-Cy7 (clone HL3, ref 558470 BDTM), anti-CD80 PerCP-Cy5.5 (16-10A1, ref 104722 BiolegendTM), and anti-MHC-II APC (clone M5/114.15.2, ref 107614 BiolegendTM) 2) T-cells “staining 2”: anti-CD3 APC (clone 17A2, ref 17-0032-82 eBioscienceTM), anti-CD8 PE (clone 53-6.7, ref 553032 BDTM), anti-CD4 PerCP-Cy5.5 (clone RM4-5, ref 45-0042-82 eBioscienceTM), anti-CD25 PE-Cy7 (clone PC61.5, ref 25-0251-82 InvitrogenTM), anti-ICOS BV421 (clone 7E.17G9, ref 564070 BDTM) and anti-PD-1 APC-Fire750 (clone 29F.1Al2, ref 135240 BiolegendTM) 3) PD-L1 expressing-cells “staining 4”: anti-CD45 AlexaFluor647 (clone 30E-11, ref 103-124 BiolegendTM), anti-PD-L1 BV421 (clone MIHS, ref 564716 BDTM) and anti-PD-L2 PE-Dazzle594 (clone TY25, ref 107215 BiolegendTM) 4) NKT cells “staining 5”: anti-CD3 FITC (clone 17A2, ref 11-00-32-82 eBioscienceTM) and anti-NK1.1 PerCP-Cy5.5 (clone PK136, ref 551114 BDTM). After the fixation and permeabilization of the cells (thanks to the Cytofix/Cytoperm kit, ref 554714 BDTM for stainings 1, 3, 4 and 5; and with the Foxp3/Transcription Factor kit, ref 00-5523-00 eBioscienceTM for staining 2), intracellular stainings were performed using for “staining 2”: anti-FoxP3 FITC (clone FJK-16s, ref 11-5773-82 eBioscienceTM) and for “staining 3”: anti-IFNg APC (clone XMG1.2, ref 505-810 BiolegendTM), anti-TNFα APC-Cy7 (clone MP6-XT22, ref 506344 BiolegendTM) and anti-IL-2 PE-Dazzle 594 (clone JES6-5H4, ref 503-840 BiolegendTM). Finally, cells were resuspended in FACS buffer and analyzed on a flow cytometer BD LSR II.

TC1 lung carcinoma cells = assay: Rechallenge of cured mice with antigenically unrelated TC1 cells in the contralateral flank; assay type: in vivo, C57B1/6 mice; details: mice cured from MCA205 following MTX+ICIs+Spd treatment (FIG. 4G)
Protocol: as §1

## CC1=NN(c2ccc(C(=O)O)cc2)C(=O)/C1=C\c1ccc(-c2cc(C)c(C)cc2[N+](=O)[O-])o1 [C646]
[1]
  Efficacy of anticancer chemotherapy with immunogenic cell death (ICD) inducers: able to improve the efficacy

## O=C1[O][Pt]2([NH][C@@H]3CCCC[C@H]3[NH]2)[O]C1=O [OXA, [(1R,2R.)-cyclohexane-1,2-diamine](ethanedioato-O,O′)platinum(II)]
MCA205 fibrosarcoma [2]; OXA+PD-1 blockade
  Cure rate: 40%

## O=C(O)C[C@]1(O)C[C@H](CCCCCCc2ccc(Cl)cc2Cl)OC1=O [SB2049901, (3R,5S)-re1-5-[6-(2,4-Dichlorophenyl)hexyl]tetrahydro-3-hydroxy-2-oxo-3-furanacetic acid]
[1]
  Efficacy of anticancer chemotherapy with immunogenic cell death (ICD) inducers: able to improve the efficacy

## NCCCCNCCCN [spermidine, H2N—(CH2)3-NH(CH2)4-NH2]
[1]
  Efficacy of anticancer chemotherapy with immunogenic cell death (ICD) inducers: able to improve the efficacy
MCA205 fibrosarcoma [2]; CRM added to OXA+PD-1 blockade
  Cure rate: 70%
  Cured mice: 7 out of 10
MCA205 fibrosarcoma [2]; figure legend FIG. 7
  Efficacy of OXA and anti-PD-1 combination when the CRM is added: further enhanced
MCA205 fibrosarcoma [3]; MTX pre-treatment associated with the CRM, then CTLA-4/PD-1-blocking antibodies (FIG. 6)
  Tumor-free mice: 8 out of 10
MCA205 fibrosarcoma [3]
  Efficacy of MTX + ICIs (anti-PD-1 plus anti-CTLA-4) chemo-immunotherapy when the CRM is added: significantly improves tumor outcome
MCA205 fibrosarcoma [3]; listed as Spd
  Efficacy of MTX + ICIs (anti-PD-1 plus anti-CTLA-4) chemo-immunotherapy when the CRM is added: further enhanced
MCA205 fibrosarcoma [3]; pretreated with the CRM alone (without MTX), data not shown
  Response to CTLA-4/PD-1-blockade: did not respond
MCA205 fibrosarcoma [3]; spermidine i.p. 3 times per week + MTX chemotherapy + dual CTLA-4/PD-1-targeting immunotherapy
  Cure of established tumor: 7 out of 9
[4]
  Outgrowth of reinjected MCA205 cancer cells: did not led to the outgrowth
Whole MCA205 tumors
  Evidence of local immunostimulation: failed to yield convincing evidence
[5]; combined with MTX
  Increase in the density of total CD3+ and CD8+ T cell infiltrate: neither HC nor spermidine
[5]; day 3 post-chemotherapy (MTX)
  Myeloid infiltrate: no major increments
[5]; day 11 post-MTX
  Macrophage subpopulation with an M1 phenotype (Ly6G-F4/80+CD11c-CD11b+CD38+): expansion
TC1 lung carcinoma cells
  Tumor formation by TC1 cancer cells injected into the opposite flank: yielded tumors
